Literature values in patent US20250041478A1, “FIBROUS POLYPEPTIDE-BASED BIOSCAFFOLD DELIVERY OF THERAPEUTICS TO NEURAL CELLS” (priority 2023, published 2025).
Structures can show the parent of a compound that is named as a salt.

Conditions: in vivo

**Q.** Which plasma half-life does the source give for `CN(C)c1ccc(O)c2c1C[C@H]1C[C@H]3[C@H](N(C)C)C(O)=C(C(N)=O)C(=O)[C@@]3(O)C(O)=C1C2=O` [MH, minocycline hydrochloride] here?
**A.** 11 to 23 h
